Experiments:
[1] = target: T1, recombinant human 17β-HSD2 (Homo sapiens, UniProt P37059); assay: Inhibition of recombinant human 17β-HSD2 (estradiol to estrone conversion, HPLC/radioactivity); type: biochemical; conditions: compound 1 μM; 50 nM estradiol, 1 mM NADH, 30 min RT
T1 construct: made in house; host or cells: Sd9 (Sf9) insect cells, baculovirus (Bac to Bac Expression System)
T1 sequence (P37059 1-387): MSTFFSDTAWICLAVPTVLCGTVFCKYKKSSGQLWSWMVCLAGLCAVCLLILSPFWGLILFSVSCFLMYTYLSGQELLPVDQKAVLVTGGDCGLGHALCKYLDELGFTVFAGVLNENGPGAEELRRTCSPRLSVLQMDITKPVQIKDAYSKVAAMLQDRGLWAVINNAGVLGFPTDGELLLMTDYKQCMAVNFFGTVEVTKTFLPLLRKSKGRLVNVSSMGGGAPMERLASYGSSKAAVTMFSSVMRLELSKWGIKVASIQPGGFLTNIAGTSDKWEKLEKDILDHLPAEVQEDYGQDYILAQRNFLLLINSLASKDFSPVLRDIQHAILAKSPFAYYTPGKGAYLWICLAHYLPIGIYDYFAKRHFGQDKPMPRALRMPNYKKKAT
Procedure, shortened: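 Membrane extract of Sf9 cells expressing recombinant human 17β-HSD2 (4 μg/ml), in 20 mM KH2PO4 pH 8.5 with 50 nM ^3H-spiked estradiol and 1 mM NADH, 30 min at RT, 1% DMSO. Compound at 1 μM or 0.1 μM; estrone formation by HPLC radioactivity, % inhibition relative to uninhibited conversion.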

[2] = Metabolic stability assay, human hepatocyte incubations; type: in vitro ADME; conditions: compound 1 μM, human hepatocytes, 0-60 min at 37° C.; read-out: Human hepatocytes MetStab T½ min
Method: Compound stock solutions of the invention were prepared in […]. Final concentration of DMSO was adjusted to 1% in all samples. The in vitro metabolic stability of the compounds of the invention was determined for exemplified compounds using human hepatocyte incubations; study compounds at concentration of 1 μM were incubated 0, 10, 20, 40 and 60 min at 37° C. Samples were collected at all time points and compounds were detected by LC-MS/MS analysis. The percent compound remaining is calculated by comparing the peak area of the parent compound at each time point to time zero. In vitro metabolic stability was determined as half life (T1/2), which was determined by regression analysis of the percent parent disappearance vs. time curve.

Q: For `C[C@]12CCC3c4cccc(F)c4CCC3C1[C@H](CCC(=O)Nc1cnccn1)c1c[nH]nc12` (stereo partly drawn) [Compound 51, 3-((8aS,12S)-3-fluoro-8a-methyl-1,2,6b,7,8,8a,10,12,12a,12b-decahydronaphtho[2′,1′:4,5]indeno[1,2-c]pyrazol-12-yl)-N-(pyrazin-2-yl)propanamide], which inhibition at 1 µM [1] is on record?
A: 1%

Q: And the half-life at 1 μM [2]?
A: 31 min

Q: For `C[C@]12CCC3c4ccccc4CCC3C1[C@H](CCC(=O)Nc1cc(F)ccn1)c1c[nH]nc12` (stereo partly drawn) [Compound 162, N-(4-fluoropyridin-2-yl)-3-((8aS,12S)-8a-methyl-1,2,6b,7,8,8a,10,12,12a,12b-decahydronaphtho[2′,1′:4,5]indeno[1,2-c]pyrazol-12-yl)propanamide], which inhibition at 1 µM [1] is on record?
A: 9%

Q: And the half-life at 1 μM [2]?
A: 83 min

Q: With `COc1ccnc(NC(=O)CC[C@@H]2c3c[nH]nc3[C@@]3(C)CCC4c5ccc(F)cc5CCC4C23)c1` (stereo partly drawn) [Compound 90, 3-((8aS,12S)-4-fluoro-8a-methyl-1,2,6b,7,8,8a,10,12,12a,12b-decahydronaphtho[2′,1′:4,5]indeno[1,2-c]pyrazol-12-yl)-N-(4-methoxypyridin-2-yl)propanamide] as the compound, how does the inhibition at 1 µM [1] read?
A: 3%

Q: And the half-life at 1 μM [2]?
A: 77 min

Q: With `CC(C)c1ccc(NC(=O)CC[C@@H]2c3c[nH]nc3[C@@]3(C)CCC4c5ccccc5CCC4C23)nc1` (stereo partly drawn) [Compound 138, N-(5-isopropylpyridin-2-yl)-3-((8aS,12S)-8a-methyl-1,2,6b,7,8,8a,10,12,12a,12b-decahydronaphtho[2′,1′:4,5]indeno[1,2-c]pyrazol-12-yl)propanamide] as the compound, how does the inhibition at 1 µM [1] read?
A: 7%

Q: And the half-life at 1 μM [2]?
A: 51 min

Q: For `CCN(CC)C(=O)CC[C@@H]1c2c[nH]nc2[C@@]2(C)CCC3c4cccc(F)c4CCC3C12` (stereo partly drawn) [Compound 216, N,N-diethyl-3-((8aS,12S)-3-fluoro-8a-methyl-1,2,6b,7,8,8a,10,12,12a,12b-decahydronaphtho[2′,1′:4,5]indeno[1,2-c]pyrazol-12-yl)propanamide], which inhibition at 1 µM [1] is on record?
A: 6%

Q: And the half-life at 1 μM [2]?
A: 8 min

Q: Which results are given for `CN1CCN(c2ccc(NC(=O)CC[C@@H]3c4c[nH]nc4[C@@]4(C)CCC5c6cccc(F)c6CCC5C34)nc2)CC1` (stereo partly drawn) [Compound 42, 3-((8aS,12S)-3-fluoro-8a-methyl-1,2,6b,7,8,8a,10,12,12a,12b-decahydronaphtho[2′,1′:4,5]indeno[1,2-c]pyrazol-12-yl)-N-(5-(4-methylpiperazin-1-yl)pyridin-2-yl)propanamide]?
A: inhibition at 1 µM [1]: 34%; half-life at 1 μM [2]: 47 min

Q: Which inhibition at 1 µM [1] does the source give for `C[C@]12CCC3c4cccc(F)c4CCC3C1[C@H](CCC(=O)Nc1ccccn1)c1c[nH]nc12` (stereo partly drawn) [Compound 18, 3-((8aS,12S)-3-fluoro-8a-methyl-1,2,6b,7,8,8a,10,12,12a,12b-decahydronaphtho[2′,1′:4,5]indeno[1,2-c]pyrazol-12-yl)-N-(pyridin-2-yl)propanamide] here?
A: 1%

Q: What about the half-life at 1 μM [2] of the same compound?
A: 41 min

Q: Which inhibition at 1 µM [1] does the source give for `C[C@]12CCC3c4ccc(F)cc4CCC3C1[C@H](CCC(=O)Nc1ccc(N3CCOCC3)cn1)c1c[nH]nc12` (stereo partly drawn) [Compound 96, 3-((8aS,12S)-4-fluoro-8a-methyl-1,2,6b,7,8,8a,10,12,12a,12b-decahydronaphtho[2′,1′:4,5]indeno[1,2-c]pyrazol-12-yl)-N-(5-morpholinopyridin-2-yl)propanamide] here?
A: 5%

Q: And the half-life at 1 μM [2]?
A: 75 min

Q: Which inhibition at 1 µM [1] does the source give for `C[C@]12CCC3c4ccc(F)cc4CCC3C1[C@H](CCC(=O)Nc1ccc(F)cn1)c1c[nH]nc12` (stereo partly drawn) [Compound 99, 3-((8aS,12S)-4-fluoro-8a-methyl-1,2,6b,7,8,8a,10,12,12a,12b-decahydronaphtho[2′,1′:4,5]indeno[1,2-c]pyrazol-12-yl)-N-(5-fluoropyridin-2-yl)propanamide] here?
A: 4%

Q: What about the half-life at 1 μM [2] of the same compound?
A: 97 min

Q: What does the source list for `C[C@]12CCC3c4ccccc4CCC3C1[C@H](CCC(=O)Nc1ccc(F)cn1)c1c[nH]nc12` (stereo partly drawn) [Compound 159, N-(5-fluoropyridin-2-yl)-3-((8aS,12S)-8a-methyl-1,2,6b,7,8,8a,10,12,12a,12b-decahydronaphtho[2′,1′:4,5]indeno[1,2-c]pyrazol-12-yl)propanamide]?
A: inhibition at 1 µM [1]: 3%; half-life at 1 μM [2]: 77 min

Q: For `CC(C)c1ccc(NC(=O)CC[C@@H]2c3c[nH]nc3[C@@]3(C)CCC4c5cccc(F)c5CCC4C23)nc1` (stereo partly drawn) [Compound 36, 3-((8aS,12S)-3-fluoro-8a-methyl-1,2,6b,7,8,8a,10,12,12a,12b-decahydronaphtho[2′,1′:4,5]indeno[1,2-c]pyrazol-12-yl)-N-(5-isopropylpyridin-2-yl)propanamide], which inhibition at 1 µM [1] is on record?
A: 8%

Q: And the half-life at 1 μM [2]?
A: 37 min

Q: What does the source list for `C[C@]12CCC3c4cccc(F)c4CCC3C1[C@H](CCC(=O)N1CCNC(=O)C1)c1c[nH]nc12` (stereo partly drawn) [Compound 24, 4-(3-((8aS,12S)-3-fluoro-8a-methyl-1,2,6b,7,8,8a,10,12,12a,12b-decahydronaphtho[2′,1′:4,5]indeno[1,2-c]pyrazol-12-yl)propanoyl)piperazin-2-one]?
A: inhibition at 1 µM [1]: 1%; half-life at 1 μM [2]: 33 min

Q: Which results are given for `CN(C)C(=O)c1ccc(NC(=O)CC[C@@H]2c3c[nH]nc3[C@@]3(C)CCC4c5cccc(F)c5CCC4C23)nc1` (stereo partly drawn) [Compound 33, 6-(3-((8aS,12S)-3-fluoro-8a-methyl-1,2,6b,7,8,8a,10,12,12a,12b-decahydronaphtho[2′,1′:4,5]indeno[1,2-c]pyrazol-12-yl)propanamido)-N,N-dimethylnicotinamide]?
A: inhibition at 1 µM [1]: 8%; half-life at 1 μM [2]: 107 min

Q: With `Cc1ccnc(NC(=O)CC[C@@H]2c3c[nH]nc3[C@@]3(C)CCC4c5ccccc5CCC4C23)c1` (stereo partly drawn) [Compound 168, 3-((8aS,12S)-8a-methyl-1,2,6b,7,8,8a,10,12,12a,12b-decahydronaphtho[2′,1′:4,5]indeno[1,2-c]pyrazol-12-yl)-N-(4-methylpyridin-2-yl)propanamide] as the compound, how does the inhibition at 1 µM [1] read?
A: 5%

Q: What about the half-life at 1 μM [2] of the same compound?
A: 68 min

Q: What does the source list for `C[C@]12CCC3c4ccc(Cl)cc4CCC3C1[C@H](CCC(=O)Nc1cc3c([nH]c1=O)CCCC3)c1c[nH]nc12` (stereo partly drawn) [Compound 123, 3-((8aS,12S)-4-chloro-8a-methyl-1,2,6b,7,8,8a,10,12,12a,12b-decahydronaphtho[2′,1′:4,5]indeno[1,2-c]pyrazol-12-yl)-N-(2-oxo-1,2,5,6,7,8-hexahydroquinolin-3-yl) propanamide]?
A: inhibition at 1 µM [1]: 8%; half-life at 1 μM [2]: 155 min

Q: Which inhibition at 1 µM [1] does the source give for `COc1ccnc(NC(=O)CC[C@@H]2c3c[nH]nc3[C@@]3(C)CCC4c5cccc(F)c5CCC4C23)c1` (stereo partly drawn) [Compound 48, 3-((8aS,12S)-3-fluoro-8a-methyl-1,2,6b,7,8,8a,10,12,12a,12b-decahydronaphtho[2′,1′:4,5]indeno[1,2-c]pyrazol-12-yl)-N-(4-methoxypyridin-2-yl)propanamide] here?
A: 5%

Q: And the half-life at 1 μM [2]?
A: 34 min

Q: With `C[C@]12CCC3c4cccc(F)c4CCC3C1[C@H](CCC(=O)Nc1ncc(F)cc1F)c1c[nH]nc12` (stereo partly drawn) [Compound 9, N-(3,5-difluoropyridin-2-yl)-3-((8aS,12S)-3-fluoro-8a-methyl-1,2,6b,7,8,8a,10,12,12a,12b-decahydronaphtho[2′,1′:4,5]indeno[1,2-c]pyrazol-12-yl)propanamide] as the compound, how does the inhibition at 1 µM [1] read?
A: 3%

Q: What about the half-life at 1 μM [2] of the same compound?
A: 61 min

Q: Which inhibition at 1 µM [1] does the source give for `C[C@]12CCC3c4cccc(F)c4CCC3C1[C@H](CCC(=O)NC1CCCCC1)c1c[nH]nc12` (stereo partly drawn) [Compound 207, N-cyclohexyl-3-((8aS,12S)-3-fluoro-8a-methyl-1,2,6b,7,8,8a,10,12,12a,12b-decahydronaphtho[2′,1′:4,5]indeno[1,2-c]pyrazol-12-yl)propanamide] here?
A: 4%

Q: What about the half-life at 1 μM [2] of the same compound?
A: 18 min

Q: Which inhibition at 1 µM [1] does the source give for `Cc1ccnc(NC(=O)CC[C@@H]2c3c[nH]nc3[C@@]3(C)CCC4c5ccc(F)cc5CCC4C23)c1` (stereo partly drawn) [Compound 93, 3-((8aS,12S)-4-fluoro-8a-methyl-1,2,6b,7,8,8a,10,12,12a,12b-decahydronaphtho[2′,1′:4,5]indeno[1,2-c]pyrazol-12-yl)-N-(4-methylpyridin-2-yl)-propanamide] here?
A: 4%

Q: What about the half-life at 1 μM [2] of the same compound?
A: 66 min

Q: For `C[C@]12CCC3c4ccccc4CCC3C1[C@H](CCC(=O)Nc1ccccn1)c1c[nH]nc12` (stereo partly drawn) [Compound 171, 3-((8aS,12S)-8a-methyl-1,2,6b,7,8,8a,10,12,12a,12b-decahydronaphtho[2′,1′:4,5]indeno[1,2-c]pyrazol-12-yl)-N-(pyridin-2-yl)propanamide], which inhibition at 1 µM [1] is on record?
A: -1%

Q: And the half-life at 1 μM [2]?
A: 73 min

Q: Which inhibition at 1 µM [1] does the source give for `C[C@]12CCC3c4cccc(F)c4CCC3C1[C@H](CCC(=O)N1CCC3(CCOCC3)C1)c1c[nH]nc12` (stereo partly drawn) [Compound 219, 3-((8aS,12S)-3-fluoro-8a-methyl-1,2,6b,7,8,8a,10,12,12a,12b-decahydronaphtho[2′,1′:4,5]indeno[1,2-c]pyrazol-12-yl)-1-(8-oxa-2-azaspiro[4.5]decan-2-yl)propan-1-one] here?
A: 3%

Q: And the half-life at 1 μM [2]?
A: 7 min

Source: patent US20220041647A1, “ESTRA-1,3,5(10)-TRIENE COMPOUNDS CONDENSED IN POSITION 16(17) WITH A PYRAZOLE RING AS INHIBITORS OF 17-HSD1” (FORENDO PHARMA LTD, priority 2018, published 2022)
